According to patent publication US20090238808A1, “Process for the identification of novel enzyme interacting compounds” (priority 2005, published 2009):

How the values were obtained:
[1] = biological target: T1, proteins captured on kinobeads from Jurkat cell lysate (Homo sapiens, UniProt Q9HCP0); experiment: In-lysate competition binding with kinobeads, Jurkat lysate, iTRAQ MS, relative intensity of identified proteins (Table 22); conditions: DMSO control = 1.0
T1 construct: endogenous in cells; host or cells: Jurkat clone E6-1 lysate
T1 sequence (Q9HCP0 whole entry): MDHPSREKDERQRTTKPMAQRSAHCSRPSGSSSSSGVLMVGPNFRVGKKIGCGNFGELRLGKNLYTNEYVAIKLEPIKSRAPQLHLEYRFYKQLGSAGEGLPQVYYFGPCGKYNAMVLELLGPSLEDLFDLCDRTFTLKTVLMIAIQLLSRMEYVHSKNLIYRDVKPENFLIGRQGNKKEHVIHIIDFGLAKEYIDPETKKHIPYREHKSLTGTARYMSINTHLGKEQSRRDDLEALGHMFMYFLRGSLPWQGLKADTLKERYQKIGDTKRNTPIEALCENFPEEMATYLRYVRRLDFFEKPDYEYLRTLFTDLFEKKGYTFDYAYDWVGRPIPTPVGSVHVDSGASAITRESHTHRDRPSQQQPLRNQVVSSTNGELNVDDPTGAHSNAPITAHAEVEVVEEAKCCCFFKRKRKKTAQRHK
Experimental: (§1) This example illustrates competition binding in cell lysates (see particularly the third aspect of the invention). A test compound, Bisindolylmaleimide VIII (Bis VIII, a well known kinase inhibitor; Davies et al., 2000. Specificity and mechanism of action of some commonly used protein kinase inhibitors. Biochemical Journal 351 (Pt 1): 95-105) was added to a cell lysate thereby allowing the test compound to bind to the target proteins in the lysate. Then the lysate was contacted with the kinobeads affinity matrix to capture remaining free target proteins. The proteins bound to the kinobeads matrix were then eluted with detergent-containing buffer, separated on a SDS-polyacryamide gel and analyzed by immunodetection (Western blots) or mass spectrometry detection.
(§2) For the quantitative detection of proteins by mass spectrometry proteins were eluted from the affinity matrix and subsequently separated by SDS-Polyacrylamide gel elecrophoresis. Suitable gel areas were cut out and subjected to in-gel proteolytic digestion with trypsin.
(§3) Four tryptic digest samples (corresponding to three different Bis VIII concentrations in the lysate and one DMSO control) were labeled with ITRAQ reagents and the combined samples were analyzed in a single LC-MS/MS mass spectrometry analysis followed by peak quantification in the MS/MS spectrum (Ross et al., 2004. Multiplexed protein quantitation in Saccharomyces cerevisiae using amine-reactive isobaric tagging reagents. Mol. Cell. Proteomics 3(12): 1154-1169). […] Binding curves for individual kinases are shown (FIG. 5). The relative intensity 50 (RI50) values representing the affinity of kinase-compound pairs are similar to IC50 values reported by kinase enzyme assays (Davies et al., 2000. Specificity and mechanism of action of some commonly used protein kinase inhibitors. Biochemical Journal 351 (Pt 1): 95-105).
(§4) Aliqots of Jurkat lysate (10 mg protein) were incubated with different Bis VIII concentrations for one hour at 4° C. (0.025 μM, 0.074 μM, 0.22 μM, 0.67 μM, 2.0 μM and 6.0 μM final concentration of Bis VIII). To this end Bis VIII solutions were prepared in 100% DMSO as solvent that corresponded to 200 fold desired final Bis VIII concentration (Bis VIII from Alexis Biochemicals cat. number ALX 270-056). Five μl of these solutions were added to 1 ml of lysate resulting in the indicated final concentrations. For a control experiment 5 μl of DMSO without Bis VIII were used.
(§5) To each preincubated lysate sample 40 μl of kinobeads (see example 1) were added and incubated for one hour at 4° C. During the incubation the tubes were rotated on an end-over-end shaker (Roto Shake Genie, Scientific Industries Inc.). Beads were collected by centrifugation, transfered to Mobicol-columns (MoBiTech 10055) and washed with 10 ml 1×DP buffer containing 0.4% NP40 detergent, followed by a wash with 5 ml 1×DP buffer with 0.2% NP40. To elute the bound proteins, 100 μl 2×SDS sample buffer was added, the column was heated for 30 minutes at 50° C. and the eluate was transferred to a microfuge tube by centrifugation. Proteins were then separated by SDS-Polyacrylamide electrophoresis (SDS-PAGE). The composition and preparation of buffers is described in example 2.
(§6) The peptide extracts of samples treated with different concentrations of the test compound (0.074 μM, 0.22 μM and 0.67 μM Bis VIII) and the solvent control (0.5% DMSO) were treated with different isomers of the isobaric tagging reagent (iTRAQ Reagents Multiplex Kit, part number 4352135, Applied Biosystems, Foster City, Calif., USA). The iTRAQ reagents are a set of multiplexed, amine-specific, stable isotope reagents that can label all peptides in up to four different biological samples enabling simultaneous identification and quantitation of peptides. The iTRAQ reagents were used according to instructions provided by the manufacturer. […]

[2] = biological target: T2, proteins captured on kinobeads from Jurkat cell lysate (Homo sapiens, UniProt Q6PHR2); experiment: as above; conditions: DMSO control = 1.0
T2 construct: endogenous in cells; host or cells: Jurkat clone E6-1 lysate
T2 sequence (Q6PHR2 whole entry): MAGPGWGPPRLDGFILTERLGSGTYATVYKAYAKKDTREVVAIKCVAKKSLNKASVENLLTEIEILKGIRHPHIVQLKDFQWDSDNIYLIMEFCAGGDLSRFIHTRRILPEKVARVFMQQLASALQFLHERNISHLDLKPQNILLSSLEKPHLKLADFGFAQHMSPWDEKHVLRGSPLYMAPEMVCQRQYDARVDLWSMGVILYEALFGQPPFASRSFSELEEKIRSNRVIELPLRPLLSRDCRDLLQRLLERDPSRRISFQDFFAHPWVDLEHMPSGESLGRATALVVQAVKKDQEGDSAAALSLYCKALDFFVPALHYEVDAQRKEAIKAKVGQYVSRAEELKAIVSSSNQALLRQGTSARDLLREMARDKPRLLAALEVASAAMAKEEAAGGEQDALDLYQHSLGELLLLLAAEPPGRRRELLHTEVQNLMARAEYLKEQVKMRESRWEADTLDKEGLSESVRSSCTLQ
Experimental: as §1, §2, §3, §4, §5, §6

[3] = biological target: ARG (Mus musculus, UniProt Q4JIM5); experiment: Kinobeads elution with test compound, mouse brain lysate, MS; type: binding; conditions: kinase released from kinobeads by specific elution
Chain of ARG (Q4JIM5 whole entry): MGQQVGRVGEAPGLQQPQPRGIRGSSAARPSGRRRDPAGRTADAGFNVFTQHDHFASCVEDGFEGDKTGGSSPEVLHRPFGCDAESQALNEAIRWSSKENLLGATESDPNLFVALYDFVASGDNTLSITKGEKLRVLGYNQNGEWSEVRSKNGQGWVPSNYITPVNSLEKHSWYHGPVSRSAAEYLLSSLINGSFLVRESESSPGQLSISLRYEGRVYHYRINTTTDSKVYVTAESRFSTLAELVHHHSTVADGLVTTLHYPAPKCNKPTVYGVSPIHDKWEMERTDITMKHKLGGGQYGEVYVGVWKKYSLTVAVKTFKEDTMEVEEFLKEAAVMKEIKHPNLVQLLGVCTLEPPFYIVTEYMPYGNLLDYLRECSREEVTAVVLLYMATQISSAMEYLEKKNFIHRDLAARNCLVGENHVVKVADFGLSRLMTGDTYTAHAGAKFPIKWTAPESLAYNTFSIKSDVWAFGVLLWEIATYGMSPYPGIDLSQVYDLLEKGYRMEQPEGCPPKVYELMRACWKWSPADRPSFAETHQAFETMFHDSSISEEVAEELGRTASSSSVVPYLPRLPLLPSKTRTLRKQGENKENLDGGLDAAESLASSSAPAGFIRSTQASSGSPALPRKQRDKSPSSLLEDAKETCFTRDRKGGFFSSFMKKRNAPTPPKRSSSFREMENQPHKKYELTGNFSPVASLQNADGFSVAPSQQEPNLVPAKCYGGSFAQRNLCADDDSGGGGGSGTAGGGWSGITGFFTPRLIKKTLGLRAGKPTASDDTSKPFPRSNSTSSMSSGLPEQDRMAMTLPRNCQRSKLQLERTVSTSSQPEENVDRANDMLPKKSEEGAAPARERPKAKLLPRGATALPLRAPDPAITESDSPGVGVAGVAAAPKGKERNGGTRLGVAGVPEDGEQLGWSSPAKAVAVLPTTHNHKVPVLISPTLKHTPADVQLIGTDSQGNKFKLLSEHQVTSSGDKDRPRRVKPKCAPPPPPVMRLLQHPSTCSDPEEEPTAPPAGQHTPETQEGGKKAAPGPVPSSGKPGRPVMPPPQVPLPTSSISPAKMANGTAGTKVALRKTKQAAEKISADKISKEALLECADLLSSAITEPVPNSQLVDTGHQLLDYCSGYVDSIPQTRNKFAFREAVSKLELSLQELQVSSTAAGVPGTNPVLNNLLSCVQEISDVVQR
How it was run: (§7)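 Read-out is mass-spectrometric identification of proteins released from kinobeads by non-modified test compound. Beads had captured mouse brain lysate proteins under near-physiological conditions; after washing, elution used 1.0 mM compound for 30 min at 4° C against a 2% DMSO or DMF control.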

[4] = biological target: T3, p38a (Mus musculus, UniProt P47811); experiment: as above; type: binding; conditions: kinase released from kinobeads by specific elution
T3 construct: from tissue; host or cells: mouse brain
T3 sequence (P47811 whole entry): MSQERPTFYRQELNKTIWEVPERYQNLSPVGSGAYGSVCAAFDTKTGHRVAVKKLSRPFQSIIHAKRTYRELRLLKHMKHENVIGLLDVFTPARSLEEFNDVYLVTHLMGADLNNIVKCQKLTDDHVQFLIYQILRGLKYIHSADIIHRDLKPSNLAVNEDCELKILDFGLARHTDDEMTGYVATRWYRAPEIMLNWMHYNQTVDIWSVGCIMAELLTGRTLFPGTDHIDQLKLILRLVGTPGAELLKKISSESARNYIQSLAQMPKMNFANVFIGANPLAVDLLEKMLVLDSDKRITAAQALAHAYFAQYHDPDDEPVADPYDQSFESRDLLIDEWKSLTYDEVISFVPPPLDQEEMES
How it was run: as §7

[5] = biological target: T4, p38b (Mus musculus, UniProt Q9WUI1); experiment: as above; type: binding; conditions: kinase released from kinobeads by specific elution
T4 construct: from tissue; host or cells: mouse brain
T4 sequence (Q9WUI1 whole entry): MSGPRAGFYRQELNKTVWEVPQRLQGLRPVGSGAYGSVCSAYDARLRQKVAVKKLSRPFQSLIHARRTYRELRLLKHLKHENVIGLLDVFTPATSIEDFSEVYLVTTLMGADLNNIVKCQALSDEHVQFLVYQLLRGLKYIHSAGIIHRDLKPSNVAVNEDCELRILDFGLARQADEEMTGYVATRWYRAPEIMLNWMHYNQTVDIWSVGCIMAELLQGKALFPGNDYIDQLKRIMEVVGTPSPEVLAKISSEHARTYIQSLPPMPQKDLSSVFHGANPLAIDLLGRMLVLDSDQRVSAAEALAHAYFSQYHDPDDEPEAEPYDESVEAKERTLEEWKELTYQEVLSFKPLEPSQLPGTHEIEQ
How it was run: as §7

Relative Intensity, CK1g1 (CSNK1G1) ([1]; 0.074 uM in lysate) | Relative Intensity, CK1g1 (CSNK1G1) ([1]; 0.67 uM in lysate) | Relative Intensity, ULK3 ([2]; 0.074 uM in lysate) | Relative Intensity, ULK3 ([2]; 0.67 uM in lysate) | mass spectrometry score, ARG [3] | number of identified peptides, ARG [3] | mass spectrometry score, p38a [4] | number of identified peptides, p38a [4] | mass spectrometry score, p38b [5] | number of identified peptides, p38b [5] | Compound
1.01 | 0.96 | 0.95 | 1.15 |  |  |  |  |  |  | Cn1cc(C2=C(c3cn(CCCN)c4ccccc34)C(=O)NC2=O)c2ccccc21 [Bis VIII, Bisindolylmaleimide VIII]
 |  |  |  | 452 | 28 | 104 | 7 | 95 | 3 | CCCCCCCCCCCCOS(=O)(=O)[O-].[Na+] [SDS]
 |  |  |  | 59 | 2 | 127 | 6 | 60 | 1 | Cn1c(=O)c(-c2c(Cl)cccc2Cl)cc2cnc(Nc3ccc(CN)cc3)cc21 [CZC7324]
